Data published in ChEMBL document CHEMBL2424561, “Discovery of new antitubercular agents by combining pyrazoline and benzoxazole pharmacophores: design, synthesis and insights into the binding interactions” (2013).
Converted amounts (≈) assume the structure as drawn.

Test system: Mycobacterium tuberculosis
Assay: Antitubercular activity against Mycobacterium tuberculosis H37Rv after 6 weeks
Assay type: functional

| SMILES | MIC [µg/mL] |
| --- | --- |
| COc1cc(C2CC(c3ccccc3)=NN2C(C)=O)cc(N)c1O (stereo not given) | 25 (≈ 76.8 µM) |
| COc1cc(C2CC(c3ccccc3)=NN2C(C)=O)cc2nc(S)oc12 (stereo not given) | 6.25 (≈ 17 µM) |
| CC(=O)N1N=C(c2ccccc2Br)CC1c1ccc2oc(N)nc2c1 (stereo not given) | 25 (≈ 62.6 µM) |
| COc1cc(C2CC(c3ccc(Cl)cc3Cl)=NN2C(C)=O)cc(N)c1O (stereo not given) | 12.5 (≈ 31.7 µM) |
| CC(=O)N1N=C(c2ccccc2Br)CC1c1cc(Cl)c2oc(N)nc2c1 (stereo not given) | 3.25 (≈ 7.49 µM) |
| CC(=O)N1N=C(c2ccccc2Br)CC1c1cc(Cl)c2oc(S)nc2c1 (stereo not given) | 6.25 (≈ 13.9 µM) |
| COc1cc(C2CC(c3ccccc3Br)=NN2C(C)=O)cc(N)c1O (stereo not given) | 12.5 (≈ 30.9 µM) |
| CC(=O)N1N=C(c2ccccc2)CC1c1ccc(O)c(N)c1 (stereo not given) | 1.25 (≈ 4.23 µM) |
| CC(=O)N1N=C(c2ccccc2)CC1c1ccc2oc(S)nc2c1 (stereo not given) | 25 (≈ 74.1 µM) |
| COc1cc(C2CC(c3ccc(F)cc3)=NN2C(C)=O)cc(N)c1O (stereo not given) | 12.5 (≈ 36.4 µM) |
| COc1cc(C2CC(c3ccc(Cl)cc3Cl)=NN2C(C)=O)cc2nc(N)oc12 (stereo not given) | 12.5 (≈ 29.8 µM) |
| CC(=O)N1N=C(c2ccccc2)CC1c1cc(N)c(O)c(Cl)c1 (stereo not given) | 3.25 (≈ 9.85 µM) |
| CC(=O)N1N=C(c2ccccc2Br)CC1c1ccc2oc(S)nc2c1 (stereo not given) | 12.5 (≈ 30 µM) |
| CC(=O)N1N=C(c2ccccc2)CC1c1cc(Cl)c2oc(N)nc2c1 (stereo not given) | 25 (≈ 70.5 µM) |
| CC(=O)N1N=C(c2ccccc2Br)CC1c1ccc(O)c(N)c1 (stereo not given) | 0.625 (≈ 1.67 µM) |
| CC(=O)N1N=C(c2ccccc2)CC1c1cc(Cl)c2oc(S)nc2c1 (stereo not given) | 1.25 (≈ 3.36 µM) |
| COc1cc(C2CC(c3ccccc3Br)=NN2C(C)=O)cc2nc(N)oc12 (stereo not given) | 12.5 (≈ 29.1 µM) |
| COc1cc(C2CC(c3ccc(Cl)cc3Cl)=NN2C(C)=O)cc2nc(S)oc12 (stereo not given) | 6.25 (≈ 14.3 µM) |
| CC(=O)N1N=C(c2ccccc2Br)CC1c1cc(N)c(O)c(Cl)c1 (stereo not given) | 12.5 (≈ 30.6 µM) |
| COc1cc(C2CC(c3ccc(F)cc3)=NN2C(C)=O)cc2nc(N)oc12 (stereo not given) | 6.25 (≈ 17 µM) |
| NNC(=O)c1ccncc1 [ISONIAZID] | 0.625 (≈ 4.56 µM) |
| COc1cc(C2CC(c3ccc(F)cc3)=NN2C(C)=O)cc2nc(S)oc12 (stereo not given) | 12.5 (≈ 32.4 µM) |
| COc1cc(C2CC(c3ccccc3)=NN2C(C)=O)cc2nc(N)oc12 (stereo not given) | 0.625 (≈ 1.78 µM) |
| COc1cc(C2CC(c3ccccc3Br)=NN2C(C)=O)cc2nc(S)oc12 (stereo not given) | 12.5 (≈ 28 µM) |
| CC(=O)N1N=C(c2ccccc2)CC1c1ccc2oc(N)nc2c1 (stereo not given) | 25 (≈ 78 µM) |
